PMC10349806 (Nature Communications, 2023)
Values joined by “and” are separate entries in the source; they are usually repeats but may differ in a detail not shown here. Equal values may be shown once.

Target: PfCRT^Dd2 (Plasmodium falciparum, UniProt Q9N623, A220S/I356T/K76T/M74I/N326S/N75E/Q271E/R371I)
Experiment: Drug uptake assay, X. laevis oocytes expressing PfCRT^Dd2
Assay type: cell-based
Conditions: for Kd: KS^CQ; for Vmax: CQ vs protons
Procedure: Oocytes were obtained as described previously. Briefly, adult (>2 years old) female X. laevis frogs (NASCO) were anesthetized in a cooled solution of ethyl 3-amino benzoate methanesulfonate (0.1%, w/v), followed by a surgical removal of parts of the ovary. The ovary lobes were carefully dissected and small pieces of oocytes were incubated in Ca^2+-free ND96 buffer (96 mM NaCl, 2 mM KCl, 1 mM MgCl2 buffered with 5 mM HEPES/NaOH, pH 7.5) supplemented with collagenase D (0.1%, w/v; Roche), BSA (0.5%, w/v), and 9 mm Na2HPO4 at 18 °C for 14-16 h while gentle shaking. After incubation, the oocytes were carefully washed several times with ND96 buffer (96 mM NaCl, 2 mM KCl, 1.8 mM CaCl2, 1 mM MgCl2 buffered with 5 mM HEPES/NaOH, pH 7.5) supplemented with 100 mg l^−1 gentamycin). Defolliculated and healthy-looking stage V-VI oocytes were manually selected for RNA microinjection. The RNA was generated as following: The codon-optimized sequences of PfCRT variants were cloned into the pSP64T expression vector. After vector linearization using the restriction endonucleases BamHI or SalI (New England Biolabs), transcription was performed using the in vitro SP6 mMessage mMachine Kit (Ambion)[34]. The obtained RNA was kept at −80 °C and diluted with nuclease-free water to a concentration of 0.6 μg μl^−1. Precision-bore glass capillary tubes (3.5-inch glass capillaries; Drummond Scientific Co.) were pulled on a vertical puller (P-87 Flaming/Brown micropipette puller, Sutter Instrument Co.), graduated, and placed on a microinjector (Nanoject II Auto-Nanoliter Injector, Drummond Scientific Co.). 50 nl of nuclease-free water alone (control oocytes) or 50 nl of 0.6 μg μl^−1 RNA were injected under stereomicroscopic control. Injected oocytes were incubated for 46–72 h at 18 °C with twice-daily buffer changes before usage in experiments.
Drug uptake assays were performed as described previously[21],[22],[24],[34]. […] The direction of radio-labeled drug transport is here from the mostly acidic extracellular solution (pH 4.5 or 6.0, as indicated) into the oocyte cytosol (pH ∼ 7.2), which corresponds to the efflux of drug from the acidic digestive vacuole (pH 5.2) into the parasite cytoplasm (pH 7.2). The topology of PfCRT in the oolemma is such that both the N- and C-terminus face the extracellular milieu[3],[22]. In the parasite, the N- and C-terminus face the lumen of the digestive vacuole. […] For determination of the amount of drug uptake for each oocyte, the reaction medium was removed and the oocytes were washed three times with 2 ml of ice-cold ND96 buffer. Each oocyte was individually transferred to a scintillation vial containing 5% sodium dodecyl sulfate (200 μl) for lysis. […] Oocytes that were injected with water instead of RNA were analyzed in parallel, representing the uptake of a drug by diffusion and/or endogenous permeation pathways. The resulting value represents the “background“ level of drug accumulation in oocytes (in-depth discussion in[22]). The specific PfCRT-mediated uptake was determined by subtracting the corresponding background value measured in water-injected oocytes from that of PfCRT-expressing oocytes. In all cases, at least three separate experiments were performed on oocytes from different frogs (biological replicate), and for each condition in an experiment, measurements were made from 10 oocytes per treatment. For pH 5.5, 6.0, and 6.5, ND96 was buffered with 5 mM MES/Tris base. For pH 4.5, 5 mM Homo-Pipes was used as a buffer and 5 mM HEPES for uptake at pH 7.0.

[1] = mixed (partial) model, mean ± SEM
[2] = PfCRTDd2, 50 µM CQ, 1 h, mean ± SEM

Chain of PfCRT^Dd2 (Q9N623 whole entry A220S/I356T/K76T/M74I/N326S/N75E/Q271E/R371I): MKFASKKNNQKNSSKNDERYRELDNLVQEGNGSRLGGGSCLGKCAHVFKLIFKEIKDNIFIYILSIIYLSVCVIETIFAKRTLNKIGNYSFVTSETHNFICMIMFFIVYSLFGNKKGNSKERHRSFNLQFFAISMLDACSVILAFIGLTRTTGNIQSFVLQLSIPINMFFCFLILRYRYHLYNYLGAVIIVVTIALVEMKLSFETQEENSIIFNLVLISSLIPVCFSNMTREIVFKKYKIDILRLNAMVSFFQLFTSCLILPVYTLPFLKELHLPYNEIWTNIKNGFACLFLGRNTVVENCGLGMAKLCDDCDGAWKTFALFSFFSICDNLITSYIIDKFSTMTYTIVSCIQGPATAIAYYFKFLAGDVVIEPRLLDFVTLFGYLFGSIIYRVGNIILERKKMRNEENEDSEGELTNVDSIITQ

SMILES: CCN(CC)CCCC(C)Nc1ccnc2cc(Cl)ccc12 (centres unmarked) [CQ, chloroquine]
- v-1 pH 6.0 (500 µM CQ, Lineweaver-Burk): 0.05 (pmol oocyte-1 h-1)-1
- inflection point in the weakly acidic pH range (CQ transport vs pH): ~ 5.2 pH
- PfCRTDd2 transport activity pH 4.5 (CQ uptake, X. laevis oocytes expressing PfCRTDd2, pH 4.5, individual replicates (Fig 6b)): 0.81 pmol oocyte-1 h-1 and 1.13 pmol oocyte-1 h-1 and 0.91 pmol oocyte-1 h-1 and 1.51 pmol oocyte-1 h-1 and 1.64 pmol oocyte-1 h-1 and 1.57 pmol oocyte-1 h-1
- PfCRTDd2 transport activity pH 4.5 (CQ uptake, X. laevis oocytes expressing PfCRTDd2, pH 4.5, individual replicates (source data Fig 1d left)): 0.89 pmol oocyte-1 h-1 and 0.81 pmol oocyte-1 h-1 and 1.13 pmol oocyte-1 h-1 and 0.91 pmol oocyte-1 h-1 and 1.51 pmol oocyte-1 h-1 and 1.64 pmol oocyte-1 h-1
- PfCRTDd2 transport activity pH 6.0 (CQ uptake, X. laevis oocytes expressing PfCRTDd2, pH 6.0, individual replicates (Fig 6b)): 3.69 pmol oocyte-1 h-1 and 3.79 pmol oocyte-1 h-1 and 3.00 pmol oocyte-1 h-1 and 3.40 pmol oocyte-1 h-1 and 3.90 pmol oocyte-1 h-1 and 6.11 pmol oocyte-1 h-1 and 4.28 pmol oocyte-1 h-1 and 5.58 pmol oocyte-1 h-1 and 6.47 pmol oocyte-1 h-1 and 3.37 pmol oocyte-1 h-1 and 3.28 pmol oocyte-1 h-1 and 4.53 pmol oocyte-1 h-1 and 3.68 pmol oocyte-1 h-1 and 5.95 pmol oocyte-1 h-1 and 11.50 pmol oocyte-1 h-1 and 6.00 pmol oocyte-1 h-1 and 4.23 pmol oocyte-1 h-1 and 6.19 pmol oocyte-1 h-1 and 4.62 pmol oocyte-1 h-1 and 6.53 pmol oocyte-1 h-1
- PfCRTDd2 transport activity pH 6.0 (CQ uptake, X. laevis oocytes expressing PfCRTDd2, pH 6.0, individual replicates (source data Fig 1d left)): 5.87 pmol oocyte-1 h-1 and 4.37 pmol oocyte-1 h-1 and 4.87 pmol oocyte-1 h-1 and 4.94 pmol oocyte-1 h-1 and 5.55 pmol oocyte-1 h-1 and 3.80 pmol oocyte-1 h-1 and 3.69 pmol oocyte-1 h-1 and 3.79 pmol oocyte-1 h-1 and 3.00 pmol oocyte-1 h-1 and 3.40 pmol oocyte-1 h-1 and 3.90 pmol oocyte-1 h-1 and 6.11 pmol oocyte-1 h-1 and 4.28 pmol oocyte-1 h-1 and 5.58 pmol oocyte-1 h-1 and 6.47 pmol oocyte-1 h-1 and 3.37 pmol oocyte-1 h-1 and 3.28 pmol oocyte-1 h-1 and 4.53 pmol oocyte-1 h-1 and 3.68 pmol oocyte-1 h-1 and 5.95 pmol oocyte-1 h-1
- PfCRTDd2 transport activity pH 4.5 with preincubation 1 h at pH 4.5 (CQ uptake, independent samples): 5.80 pmol oocyte-1 h-1 and 5.85 pmol oocyte-1 h-1 and 2.93 pmol oocyte-1 h-1
- PfCRTDd2 transport activity pH 4.5 without preincubation (CQ uptake, independent samples): 5.79 pmol oocyte-1 h-1 and 5.26 pmol oocyte-1 h-1 and 2.99 pmol oocyte-1 h-1
- Kd [1]: 320 ± 100 µM
- Kd (noncompetitive (partial) model, called KM, mean ± SEM): 220 ± 25 µM
- Activity at pH 4.5 [2]: 1.20 ± 0.10 pmol h-1 oocyte-1
- Activity at pH 6.0 [2]: 5.05 ± 0.23 pmol h-1 oocyte-1
- R-value (PfCRTDd2, CQ transport at pH 4.5 / pH 6.0): ~ 0.2 and 0.24 ± 0.01
- Vmax ± SEM (PfCRT^Dd2, pH 4.5): 14 ± 2 pmol h^−1 oocyte ^−1
- Vmax ± SEM (PfCRT^Dd2, pH 6.0): 32 ± 2 pmol h^−1 oocyte ^−1
- PfCRTDd2 R-value (R-value from transport activity at pH 4.5 and pH 6.0, individual replicates (source data Fig 1d left)): 0.23 and 0.27 and 0.25
- PfCRTDd2 R-value (R-value from transport activity at pH 4.5 and pH 6.0, oocytes expressing PfCRTDd2, source data Fig 1d left): 0.25
- pH of maximal CQ transport activity (bell-shaped curve, pH 4.5 to 7.0, 50 µM CQ): 6.2 ± 0.3 pH
- CQ transport activity, oocytes pre-treated 1 h at pH 4.5 vs untreated (in words): no significant differences
- Vmax [1]: 45 ± 9 pmol h^−1 oocyte^−1
- α (mixed (partial) model, factor by which KS values change when other substrate is bound): 0.53 ± 0.26
- β (mixed (partial) model, factor by which Vmax is affected by the inhibitor): 0.27 ± 0.06
- Vmax (noncompetitive (partial) model, mean ± SEM): 40 ± 4 pmol h^−1 oocyte^−1
- β (noncompetitive (partial) model, factor by which Vmax is affected by bound proton): 0.36 ± 0.02
- PfCRTDd2 transport activity pH 4.5 (pH 4.5, individual replicates (Fig 6a)): 0.82 pmol oocyte-1 h-1 and 2.03 pmol oocyte-1 h-1 and 1.25 pmol oocyte-1 h-1 and 0.75 pmol oocyte-1 h-1 and 1.02 pmol oocyte-1 h-1 and 0.89 pmol oocyte-1 h-1 and 0.81 pmol oocyte-1 h-1 and 1.13 pmol oocyte-1 h-1 and 0.91 pmol oocyte-1 h-1 and 1.51 pmol oocyte-1 h-1 and 1.64 pmol oocyte-1 h-1 and 1.57 pmol oocyte-1 h-1 and 1.05 pmol oocyte-1 h-1 and 1.43 pmol oocyte-1 h-1
- PfCRTDd2 transport activity pH 4.5 (pH 4.5, individual replicates, Fig 6b): 0.82 pmol oocyte-1 h-1 and 2.03 pmol oocyte-1 h-1 and 1.25 pmol oocyte-1 h-1 and 0.75 pmol oocyte-1 h-1 and 1.02 pmol oocyte-1 h-1 and 0.89 pmol oocyte-1 h-1 and 1.05 pmol oocyte-1 h-1 and 1.43 pmol oocyte-1 h-1
- PfCRTDd2 transport activity pH 4.5 (pH 4.5, oocytes expressing PfCRTDd2, individual replicate values, source data Fig 1d left): 1.57 pmol oocyte-1 h-1
- PfCRTDd2 transport activity pH 4.5 (pH 4.5, single replicates, Fig 1d left): 2.03 pmol oocyte-1 h-1 and 1.25 pmol oocyte-1 h-1 and 0.75 pmol oocyte-1 h-1 and 1.02 pmol oocyte-1 h-1 and 1.05 pmol oocyte-1 h-1 and 1.43 pmol oocyte-1 h-1 and 0.82 pmol oocyte-1 h-1
- PfCRTDd2 R-value (pH 4.5 vs pH 6.0, Fig 1d left): 0.27 and 0.30 and 0.19 and 0.23 and 0.17 and 0.15
- PfCRTDd2 transport activity pH 6.0 (pH 6.0, individual replicates, Fig 6b): 5.64 pmol oocyte-1 h-1 and 4.84 pmol oocyte-1 h-1 and 7.93 pmol oocyte-1 h-1 and 4.17 pmol oocyte-1 h-1 and 7.55 pmol oocyte-1 h-1 and 4.19 pmol oocyte-1 h-1 and 4.00 pmol oocyte-1 h-1 and 4.20 pmol oocyte-1 h-1 and 4.01 pmol oocyte-1 h-1 and 4.51 pmol oocyte-1 h-1 and 5.87 pmol oocyte-1 h-1 and 4.37 pmol oocyte-1 h-1 and 4.87 pmol oocyte-1 h-1 and 4.94 pmol oocyte-1 h-1 and 5.55 pmol oocyte-1 h-1 and 3.80 pmol oocyte-1 h-1 and 4.33 pmol oocyte-1 h-1 and 4.86 pmol oocyte-1 h-1 and 6.59 pmol oocyte-1 h-1 and 6.15 pmol oocyte-1 h-1 and 4.02 pmol oocyte-1 h-1 and 5.29 pmol oocyte-1 h-1 and 5.21 pmol oocyte-1 h-1
- PfCRTDd2 transport activity pH 6.0 (pH 6.0, oocytes expressing PfCRTDd2, individual replicate values, source data Fig 1d left): 11.50 pmol oocyte-1 h-1 and 6.00 pmol oocyte-1 h-1 and 4.23 pmol oocyte-1 h-1 and 6.19 pmol oocyte-1 h-1 and 4.62 pmol oocyte-1 h-1 and 6.53 pmol oocyte-1 h-1
- PfCRTDd2 transport activity pH 6.0 (pH 6.0, single replicates, Fig 1d left): 5.64 pmol oocyte-1 h-1 and 4.84 pmol oocyte-1 h-1 and 7.93 pmol oocyte-1 h-1 and 4.17 pmol oocyte-1 h-1 and 7.55 pmol oocyte-1 h-1 and 4.19 pmol oocyte-1 h-1 and 4.00 pmol oocyte-1 h-1 and 4.20 pmol oocyte-1 h-1 and 4.01 pmol oocyte-1 h-1 and 4.51 pmol oocyte-1 h-1 and 4.33 pmol oocyte-1 h-1 and 4.86 pmol oocyte-1 h-1 and 6.59 pmol oocyte-1 h-1 and 6.15 pmol oocyte-1 h-1 and 4.02 pmol oocyte-1 h-1 and 5.29 pmol oocyte-1 h-1 and 5.21 pmol oocyte-1 h-1
- PfCRTDd2 R-value (ratio of activity pH 4.5 / pH 6.0): 0.15 and 0.27 and 0.30 and 0.19 and 0.23 and 0.17
- PfCRTDd2 R-value (ratio of transport activity pH 4.5 to pH 6.0, individual replicates (Fig 6b)): 0.27 and 0.25
- PfCRTDd2 R-value (transport activity pH 4.5 relative to pH 6.0 (Fig 6a)): 0.15 and 0.27 and 0.30 and 0.19 and 0.23 and 0.25 and 0.17
